From patent publication US8765944B2, “Compounds for the treatment of hepatitis C” (priority 2010, dated 2014)

System: HCV pseudoparticles
Test: HCV pseudoparticle infection assay (luciferase reporter, Huh7 cells)
Format: cell-based, HCV (genotype 1b E1 and E2 envelope)
Details: Hepatitis C virus, genotype 1b, Huh-7, 48 h, HCV pseudoparticles (genotype 1b), luciferase activity 2 days after infection

SMILES | EC50 (class) | EC50
O=C(NS(=O)(=O)c1ccccc1)c1ccc(Nc2nc(NC3(c4ccc(Cl)cc4)CC3)nc(OCC(F)(F)F)n2)cc1 [Example 8011] | 0.5 to 100 nM | –
Cc1cccc(C(=O)N2CCN(c3nc(Nc4ccc(C(=O)NS(=O)(=O)C5(CN(C)C)CC5)cc4)nc(OCC(F)(F)F)n3)CC2)c1 [Example 8038] | 1000 to 5000 nM | –
CC(C)NCC1(C(=O)NS(=O)(=O)c2ccc(Nc3nc(NC4(c5ccc(Cl)cc5)CC4)nc(OCC(F)(F)F)n3)cc2)CC1 [Example 3005] | 1000 to 5000 nM | –
CC1(C)CCN(CC2(S(=O)(=O)NC(=O)c3ccc(Nc4nc(NC5(c6ccc(Cl)cc6)CC5)nc(OCC(F)(F)F)n4)cc3)CC2)C1 [Example 1023] | 0.5 to 100 nM | –
C=CS(=O)(=O)NC(=O)CCCNC(=O)c1ccc(Nc2nc(NC3(c4ccc(Cl)cc4)CC3)nc(OCC(F)(F)F)n2)cc1 [Example 2017] | 0.5 to 100 nM | 3.2 nM
CCS(=O)(=O)NC(=O)C1(CNC(=O)c2ccc(Nc3nc(NC4(c5ccc(Cl)cc5)CC4)nc(OCC(F)(F)F)n3)cc2)CC1 [Example 2073] | 0.5 to 100 nM | –
C=CS(=O)(=O)NC(=O)CCNC(=O)c1ccc(Nc2nc(NC3(c4ccc(Cl)cc4)CC3)nc(OCC(F)(F)F)n2)cc1 [Example 2016] | 0.5 to 100 nM | –
CN(C)CC1(S(=O)(=O)NC(=O)c2ccc(Nc3nc(OCC(F)(F)F)nc(N4CCN(S(=O)(=O)c5ccccc5Cl)CC4)n3)cc2)CC1 [Example 8033] | 1000 to 5000 nM | 36100 nM
CC(C)S(=O)(=O)NC(=O)[C@@H](C)NC(=O)CCCNC(=O)c1ccc(Nc2nc(NC3(c4ccc(Cl)cc4)CC3)nc(OCC(F)(F)F)n2)cc1 [Example 2052] | 0.5 to 100 nM | –
Cc1ccc(C(=O)N2CCN(c3nc(Nc4ccc(C(=O)NS(=O)(=O)C5(CN(C)C)CC5)cc4)nc(OCC(F)(F)F)n3)CC2)cc1 [Example 8027] | 1000 to 5000 nM | –
C=CS(=O)(=O)NC(=O)c1ccc(Nc2nc(NC3(c4ccc(Cl)cc4)CC3)nc(OCC(F)(F)F)n2)cc1 [Example 1004] | 0.5 to 100 nM | 5.3 nM
CS(=O)(=O)NC(=O)CCCCNC(=O)c1ccc(Nc2nc(NC3(c4ccc(Cl)cc4)CC3)nc(OCC(F)(F)F)n2)cc1 [Example 2011] | 0.5 to 100 nM | –
O=C(CCCNC(=O)c1ccc(Nc2nc(NC3(c4ccc(Cl)cc4)CC3)nc(OCC(F)(F)F)n2)cc1)N[C@]1(C(=O)NS(=O)(=O)C2CCC2)C[C@H]1C1CC1 [Example 2042] | 0.5 to 100 nM | –
CC(C)(C)OC(=O)NC[C@H](NC(=O)c1ccc(Nc2nc(NC3(c4ccc(Cl)cc4)CC3)nc(OCC(F)(F)F)n2)cc1)C(=O)NS(=O)(=O)C1CC1 [Example 2096] | 0.5 to 100 nM | –
O=C(NS(=O)(=O)c1ccc(F)cc1)c1ccc(Nc2nc(NC3(c4ccc(Cl)cc4)CC3)nc(OCC(F)(F)F)n2)cc1 [Example 8013] | 0.5 to 100 nM | –
CN(C)S(=O)(=O)NC(=O)C(C)(C)CNC(=O)c1ccc(Nc2nc(NC3(c4ccc(Cl)cc4)CC3)nc(OCC(F)(F)F)n2)cc1 [Example 2093] | 0.5 to 100 nM | –
CC(C)(C)OC(=O)N1CCC[C@H]1C(=O)NCCS(=O)(=O)NC(=O)c1ccc(Nc2nc(NC3(c4ccc(Cl)cc4)CC3)nc(OCC(F)(F)F)n2)cc1 [Example 1041] | 0.5 to 100 nM | –
CC(=O)N1CCN(CC2(S(=O)(=O)NC(=O)c3ccc(Nc4nc(NC5(c6ccc(Cl)cc6)CC5)nc(OCC(F)(F)F)n4)cc3)CC2)CC1 [Example 1018] | 0.5 to 100 nM | –
